Source: BindingDB's records for patent US20250263395 (Monte Rosa Therapeutics, 2025)

Target: Protein cereblon (Homo sapiens, UniProt Q96SW2)
Assay: HTRF assay
Description: Biochemical assays were conducted in Greiner white 384 well HiBase plates (Cat. No 784075-25) in 10 μL total volume. A one pot detection solution of CRBN-DDB1 (2.5 nM), Anti-His Terbium Cryptate Gold (1×, PerkinElmer Cat. #: 61HI2TLB), and Cy5-Thalidomide (100 nM, Tenova Cat.: T52461) was prepared in 20 mM HEPES, 20 mM NaCl, 0.2 mM TCEP, 0.2 mM EDTA, and 0.005% Tween20 was dispensed to each assay plate. Compounds were stored in dry, ambient temperatures at 10 mM. A 10-point, 1:3 dilution series was prepared from 10 mM stock concentrations in Echo-compatible LDV plates. 10 nL of each compound dilution series was dispensed into assays wells using an Echo 650 (Labcyte inc. USA). 10 nL of 10 mM Lenalidomide was transferred into the active-control wells for the assay and 10 nL of DMSO was transferred into the neutral-control wells. The assay was then allowed to incubate for 30 min at ambient temperature after transferring compound. Plate measurements were taken on a Pherastar FSX (BMG Labtech, Germany) using the HTRF Red filter (Ex. 337 nm, em1: 620 nm, em2: 665 nm) (Flashes: 50, Integration time: 60-400 us, Z-height: 10 mm, Ratio-multiplier: 10,000).

Protein cereblon, sequence (Q96SW2 whole entry): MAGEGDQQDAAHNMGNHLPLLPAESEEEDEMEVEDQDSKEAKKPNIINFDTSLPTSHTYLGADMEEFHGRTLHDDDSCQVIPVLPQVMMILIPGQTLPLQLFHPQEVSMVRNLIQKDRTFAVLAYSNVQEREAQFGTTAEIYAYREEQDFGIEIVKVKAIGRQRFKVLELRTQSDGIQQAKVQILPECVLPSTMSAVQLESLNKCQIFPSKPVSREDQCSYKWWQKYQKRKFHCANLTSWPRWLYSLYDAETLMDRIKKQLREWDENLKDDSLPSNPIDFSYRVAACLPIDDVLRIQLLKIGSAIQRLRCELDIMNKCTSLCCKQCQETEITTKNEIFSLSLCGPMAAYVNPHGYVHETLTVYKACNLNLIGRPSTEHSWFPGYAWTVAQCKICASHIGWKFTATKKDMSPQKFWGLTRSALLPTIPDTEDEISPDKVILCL

Ki, < 100 nM:
O=C1CCC(c2c(F)cc(N3CC(NC(=O)OCC4CC5(CCC5)C4)C3)cc2F)C(=O)N1 (stereo not given) [US20250263395, Compound 1]
Cc1ccnc(N2CC(OC(=O)NC3CN(c4cc(F)c(C5CCC(=O)NC5=O)c(F)c4)C3)C2)c1 (stereo not given) [US20250263395, Compound 6]
Cc1cccc(N(C)C(=O)N2CC(OC(=O)NC3CN(c4cc(F)c(C5CCC(=O)NC5=O)c(F)c4)C3)C2)c1 (stereo not given) [US20250263395, Compound 10]
O=C1CCC(c2c(F)cc(N3CC(NC(=O)OC4CN(C(=O)N5CCCC5)C4)C3)cc2F)C(=O)N1 (stereo not given) [US20250263395, Compound 32]
Cc1ccc(C)c(N(C)C(=O)C23CC(OC(=O)NC4CN(c5cc(F)c(C6CCC(=O)NC6=O)c(F)c5)C4)(C2)C3)c1 (stereo not given) [US20250263395, Compound 111]
